Target: Recombinant human HSD17B13 (Homo sapiens (Human), UniProt Q7Z5P4)
Assay: HSD17B13 rapid-fire mass spectrometry assay (RF/MS assay)
Type: biochemical
Settings: inhibition of HSD17B13; LTB4 10 μM, NAD+ 0.5 mM, RT 3 h; IC50 ranges A-E
Excerpt: HSD17B13 rapid-fire mass spectrometry assay (RF/MS assay). Recombinant human HSD17B13 was expressed and purified from sf9 cells at Charles River Labs (Saffron Walden, UK). Leukotriene B4 (Catalog #71160-24-2) and 12-oxoleukotriene B4 (Catalog #20140) were purchased from Cayman Chemicals (Ann Arbor, Michigan.). NAD+ (Catalog #N8285), BSA (Catalog #A7030), DMSO (Catalog #D2650), and Tween-20 (Catalog #11332465001) were purchased from Sigma (St. Louis, MO). Formic acid (Catalog #28905) was from ThermoFisher Scientific and 384 deep well PP microplates (Catalog #784261) were from Greiner Bio-One. In a typical IC50 assay performed in a 384w PP microplate, test compounds (0-100 μM) were incubated with HSD17B13 (80 nM), LTB4 (10 μM), and NAD^+ (0.5 mM) in 10 μL assay buffer (20 mM Tris (pH 7.5), BSA (0.005%), and Tween-20 (0.01%)) at RT for 3 h. The assays were quenched by adding 20 μL of 0.15% aqueous formic acid and the plates were frozen at −80° C. RF/MS analysis was performed at PureHoney Technologies (Billerica, MA) on a RapidFire RF300 system (Agilent Technologies, Inc.) coupled to an API 4000 triple quadrupole mass spectrometer (Sciex) equipped with Agilent RapidFire cartridge type A (C4). The mobile phase was 0.09% formic acid and 0.01% trifluoracetic acid in water (Buffer A) and 0.09% formic acid and 0.01% trifluoracetic acid in 80% aqueous acetonitrile (Buffer B). The RapidFire method conditions were the following: 250 ms aspirate, 3000 ms load/desalt, 4000 ms elute, and 500 ms re-equilibrate. RF-MS/MS was performed in negative polarity (−4500 V), the source temperature was 650° C., and gas 1 and gas 2 settings for nitrogen were set to 50. The curtain gas and collision gas were also nitrogen and were set to 20 and 12, respectively. Leukotriene B4 (335.3) and 12-oxoLeukotriene B4 (333.3) SRM transitions were optimized with Discovery Quant software and extracted ion counts for these analytes were determined.
Data Analysis. HSD17B13 enzyme activity was measured as percent conversion of extracted ion counts and normalized to high and low controls to determine percent residual activity at various concentrations of test compounds. Data were fitted to normalized activity (variable slope) versus concentration fit in GraphPad Prism 7 to determine IC50. All experiments were run in duplicates.
By using above method, the inhibition of HSD17B13 was evaluated for the compounds of Formula (I). IC50 ranges are as follows: A=IC50<0.100 μM; B=0.100 μM<IC50<0.500 μM; C=0.500 μM<IC50<1 μM; D=1 μM<IC50<100 μM; E=IC50>100 μM

Sequence of Recombinant human HSD17B13 (Q7Z5P4 20-300): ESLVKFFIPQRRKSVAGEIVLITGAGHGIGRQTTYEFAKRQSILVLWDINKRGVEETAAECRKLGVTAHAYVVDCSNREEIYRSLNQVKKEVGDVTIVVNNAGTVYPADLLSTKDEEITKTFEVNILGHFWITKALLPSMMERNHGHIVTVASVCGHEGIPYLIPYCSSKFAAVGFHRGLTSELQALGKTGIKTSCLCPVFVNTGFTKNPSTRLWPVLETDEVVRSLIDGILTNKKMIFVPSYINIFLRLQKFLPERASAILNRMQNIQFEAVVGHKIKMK

| SMILES | IC50 |
| --- | --- |
| O=C(O)c1ccc(NS(=O)(=O)c2cnc(-c3ccc(F)cc3)s2)c(OC2CC2)c1 [Example 43] | 1000 to 100000 nM |
| COc1cc(C(=O)O)c(F)cc1NS(=O)(=O)c1csc(-c2ccc(C3=CCC(C(C)(C)C)CC3)c(OC(C)C)c2F)n1 (centres unmarked) [Example 593] | < 100 nM |
| COc1cc(C(=O)O)ccc1NS(=O)(=O)c1cnc(-c2ccccc2)o1 [Example 81] | 100 to 500 nM |
| COc1cc(C(=O)O)ccc1NS(=O)(=O)c1csc(N2CCCC(NCc3ccccc3)C2)n1 (centres unmarked) [Example 273] | 1000 to 100000 nM |
| O=C(O)c1ccc(NS(=O)(=O)c2cnc(-c3ccc(F)cc3)s2)cc1 [Example 60, 4-((2-(4-fluorophenyl)thiazole)-5-sulfonamido)benzoic acid] | 500 to 1000 nM |
| COc1cc(C(=O)O)ccc1NS(=O)(=O)c1ccc(-c2ccccc2C)s1 [Example 194] | 100 to 500 nM |
| COc1cc(C(=O)O)ccc1NS(=O)(=O)c1csc(-c2ccc(C3=CCC(C(F)(F)F)CC3)cc2)n1 (centres unmarked) [Example 716] | < 100 nM |
| COc1cc(C(=O)O)ccc1NS(=O)(=O)c1cnc(-c2ccccc2)s1 [Example 158] | 100 to 500 nM |
| COc1cc(C(=O)O)ccc1NS(=O)(=O)c1ccc(-c2cnn(C3CCCCC3)c2)cc1F [Example 355] | 100 to 500 nM |
| COc1cc(C(=O)O)c(F)cc1NS(=O)(=O)c1ccc2sc(-c3ccc([C@H]4CC[C@H](C(F)(F)F)CC4)cc3)nc2c1 [Example 650] | 100 to 500 nM |
| CCc1cc(C2CCC(C)(C)CC2)ccc1-c1nc(S(=O)(=O)Nc2cc(F)c(C(=O)O)cc2OC)cs1 [Example 572] | < 100 nM |
| COc1cc(C(=O)O)ccc1NS(=O)(=O)c1csc(-c2ccc(C3CCOCC3)cc2)n1 [Example 370] | 500 to 1000 nM |
| COc1cc(C(=O)O)ccc1NS(=O)(=O)c1csc(-c2ccc(N3CCCCC3)cc2)n1 [Example 284] | 100 to 500 nM |
| COc1cc(C(=O)O)ccc1NS(=O)(=O)c1ccc(-c2ccc(C3CCCCC3)cc2)s1 [Example 374] | 100 to 500 nM |
| COc1cc(C(=O)O)ccc1NS(=O)(=O)c1csc(-c2ccncc2)n1 [Example 100] | 1000 to 100000 nM |
| COc1cc(C(=O)O)c(F)cc1NS(=O)(=O)c1csc(-c2ccc(-c3ccc(C(F)(F)C(F)(F)F)cc3)cc2C(F)(F)F)n1 [Example 784] | < 100 nM |
| COc1cc(C(=O)O)ccc1NS(=O)(=O)c1ccc(-c2cccc(O)c2)s1 [Example 191] | < 100 nM |
| O=C(O)c1cnc(NS(=O)(=O)c2cnc(-c3ccc(F)cc3)s2)cn1 [Example 90] | 1000 to 100000 nM |
| COc1cc(C(=O)O)ccc1NS(=O)(=O)c1cnc(-c2ccc(C3CCC(c4ccccc4)CC3)cc2)s1 (centres unmarked) [Example 452, 3-methoxy-4-((2-(4-(4-phenylcyclohexyl)phenyl)thiazole)-5-sulfonamido)benzoic acid] | 100 to 500 nM |
| COc1cc(C(=O)O)c(F)cc1NS(=O)(=O)c1csc(-c2ccc(-c3ccc(-c4ccc(C(F)(C(F)(F)F)C(F)(F)F)cc4)cc3C(F)(F)F)cc2C(F)(F)F)n1 [Example 797] | 100 to 500 nM |
| COc1cc(C(=O)O)ccc1NS(=O)(=O)c1cnc(-c2ccc(-c3ccc(C(F)(F)C(F)(F)F)cc3)cc2)s1 [Example 714] | 100 to 500 nM |
| COc1cc(C(=O)O)c(F)cc1NS(=O)(=O)c1csc(-c2ccc([C@H]3CC[C@@H](C(C)C)CC3)cc2C(F)(F)F)n1 [Example 619] | 100 to 500 nM |
| COc1cc(C(=O)O)c(F)cc1NS(=O)(=O)c1csc(-c2ccc(-c3ccsc3)cc2)n1 [Example 634] | 100 to 500 nM |
| COc1cc(C(=O)O)c(F)cc1NS(=O)(=O)c1csc(-c2ccc(C3CCC(C)(C)CC3)c(F)c2C)n1 [Example 566] | < 100 nM |
| COc1cc(C(=O)O)ccc1NS(=O)(=O)c1csc(C#Cc2ccc(C(C)C)cc2)n1 [Example 189] | < 100 nM |
| COc1cc(C(=O)O)c(F)cc1NS(=O)(=O)c1csc(-c2ccc(-c3ccc(-c4ccc(C5(C(F)(F)F)CC5)cc4)cc3C(F)(F)F)cc2C(F)(F)F)n1 [Example 796] | 100 to 500 nM |
| COc1cc(C(=O)O)ccc1NS(=O)(=O)c1coc(-c2ccc(C3CCCCC3)cc2)n1 [Example 419] | 100 to 500 nM |

| SMILES | IC50 |
| --- | --- |
| COc1cc(C(=O)O)c(F)cc1NS(=O)(=O)c1csc(-c2ccc(-c3ccc(-c4ccc(C5=CCC(C(C)(C)C)CC5)cc4C(F)(F)F)cc3C(F)(F)F)cc2C(F)(F)F)n1 (centres unmarked) [Example 804] | 1000 to 100000 nM |
| COc1cc(C(=O)O)c(F)cc1NS(=O)(=O)c1csc(C#Cc2cccc(Cl)c2)n1 [Example 234] | 100 to 500 nM |
| COCCOc1c(C2CCC(C)(C)CC2)ccc(-c2nc(S(=O)(=O)Nc3cc(F)c(C(=O)O)cc3OC)cs2)c1F [Example 580] | 100 to 500 nM |
| COc1cc(C(=O)O)ccc1NS(=O)(=O)N1Cc2nc(C3=CCC(C(C)(C)C)CC3)sc2C1 (centres unmarked) [Example 362] | 100 to 500 nM |
| COc1cc(C(=O)O)ccc1NS(=O)(=O)c1csc(-c2ccc(C34CC5CC(CC(C5)C3)C4)cc2)n1 [Example 507] | 100 to 500 nM |
| COc1cc(C(=O)O)c(F)cc1NS(=O)(=O)c1cnc(-c2ccc(-c3ccc(C45CC6C[C@H](C4)C[C@H](C6)C5)cc3)cc2)s1 [Example 766] | 100 to 500 nM |
| COc1cc(C(=O)O)c(F)cc1NS(=O)(=O)c1ncc(-c2ccc(C3CCCCC3)cc2)s1 [Example 616] | 100 to 500 nM |
| COc1cc(C(=O)O)ccc1NS(=O)(=O)c1csc(N2CCN(S(=O)(=O)c3ccc(C)cc3)CC2)n1 [Example 290] | 1000 to 100000 nM |
| COc1cc(C(=O)O)ccc1NS(=O)(=O)c1ccc(C#CC2CCCC2)c(F)c1 [Example 335, 4-((4-(cyclopentylethynyl)-3-fluorophenyl)sulfonamido)-3-methoxybenzoic acid] | < 100 nM |
| COc1cc(C(=O)O)ccc1NS(=O)(=O)c1csc(-c2ccc3cnccc3c2)n1 [Example 405] | 100 to 500 nM |
| COc1cc(C(=O)O)c(F)cc1NS(=O)(=O)c1csc(-c2ccc(C3CCC(C)(C)CC3)c(OC(F)(F)F)c2)n1 [Example 540] | 100 to 500 nM |
| COc1cc(C(=O)O)ccc1NS(=O)(=O)c1csc(N2CCN(c3ccc(N(C)C)cc3)CC2)n1 [Example 291] | 1000 to 100000 nM |
| CNS(=O)(=O)c1cc(OC)c(NS(=O)(=O)c2cnc(-c3ccc(F)cc3)s2)cc1C [Example 121] | 1000 to 100000 nM |
| CCC[C@H]1CC[C@H](C2CC=C(c3nc(S(=O)(=O)Nc4ccc(C(=O)O)cc4OC)cs3)CC2)CC1 (some centres unmarked) [Example 379] | 100 to 500 nM |
| COc1cc(C(=O)O)c(F)cc1NS(=O)(=O)c1csc(-c2ccc([C@H]3CC[C@H](C(F)(F)F)CC3)cc2)n1 [Example 509] | < 100 nM |
| COc1cc(C(=O)O)ccc1NS(=O)(=O)c1csc(-c2ccccn2)n1 [Example 147] | 1000 to 100000 nM |
| COc1cc(C(=O)O)c(F)cc1NS(=O)(=O)c1cccc(-c2ccc([C@H]3CC[C@H](C(C)(C)C)CC3)cc2)c1F [Example 612] | < 100 nM |
| COc1cc(C(=O)O)ccc1NS(=O)(=O)c1cccc(C#Cc2cccc(OC(F)(F)F)c2)n1 [Example 463, 3-methoxy-4-((6-((3-(trifluoromethoxy)phenyl)ethynyl)pyridine)-2-sulfonamido)benzoic acid] | 100 to 500 nM |
| COc1cc(C(=O)O)c(F)cc1NS(=O)(=O)c1csc(-c2ccc(-c3cc4ccccc4[nH]3)cc2)n1 [Example 637] | 100 to 500 nM |
| COc1cc(C(=O)O)c(F)cc1NS(=O)(=O)c1csc(-c2ccc(C3CC4CCC3C4)cc2)n1 (centres unmarked) [Example 592] | 100 to 500 nM |
| O=C(O)c1cc(F)c(NS(=O)(=O)c2cnc(-c3ccc(F)cc3)s2)c(F)c1 [Example 46] | 100 to 500 nM |
| COc1cc(C(=O)O)ccc1NS(=O)(=O)c1cnc(-c2ccc(C3=C[C@H]4CC[C@]3(C)C4(C)C)cc2)s1 [Example 711] | 100 to 500 nM |
| COc1cc(C(=O)O)c(F)cc1NS(=O)(=O)c1csc(-c2ccc(C3=CCC(C)(C)CC3)cn2)n1 [Example 565] | 100 to 500 nM |
| COc1cc(C(=O)O)c(F)cc1NS(=O)(=O)c1nc(-c2ccc(C3CCC(C)(C)CC3)cc2)sc1C [Example 666] | 100 to 500 nM |
| COc1cc(C(=O)O)c(F)cc1NS(=O)(=O)c1cnn(-c2ccc([C@H]3CC[C@@H](C(F)(F)F)CC3)cc2)c1 [Example 685, 2-fluoro-5-methoxy-4-((1-(4-((1s,4s)-4-(trifluoromethyl)cyclohexyl)phenyl)-1H-pyrazole)-4-sulfonamido)benzoic acid] | 100 to 500 nM |
| COc1cc(C(=O)O)c(F)cc1NS(=O)(=O)c1csc(-c2ccc(C3=CCC(C)(C)CC3)c3[nH]ncc23)n1 [Example 538] | 100 to 500 nM |

Reference: patent US12384753B2, “17-beta-hydroxysteroid dehydrogenase type 13 inhibitors and methods of use thereof” (Enanta Pharmaceuticals, Inc., priority 2021, dated 2025)
